From patent EP0041644B1 (priority 1980, dated 1981)

Legend:
L-1210 Leukemia = L-1210 Leukemia (Table IX); assay type: in vivo, mice
Method: The sodium and ammonium salts of the present invention were tested against transplantable mouse tumors as indicated below.

Lewis Lung Carcinoma = Lewis Lung Carcinoma - Test 1 (ip, delayed therapy); assay type: in vivo, mice

N.N.[Cl][Pt][Cl] [Cis-DDP, cis-diammine dichloroplatinum (II)]
Average Weight Change,g (L-1210 Leukemia; 1.6 mg/kg/inj ip, qd 1→9): -2.9 g | Effect MST % T/C (L-1210 Leukemia; 1.6 mg/kg/inj ip, qd 1→9): 154 % T/C | MST Days (L-1210 Leukemia; 1.6 mg/kg/inj ip, qd 1→9): 10.0 days | Survivors Day 5(45) (L-1210 Leukemia; 1.6 mg/kg/inj ip, qd 1→9): 6/6 | Average Weight Change,g (L-1210 Leukemia; 2 mg/kg/inj ip, Day 1): -0.7 g | Effect MST % T/C (L-1210 Leukemia; 2 mg/kg/inj ip, Day 1): 138 % T/C | MST Days (L-1210 Leukemia; 2 mg/kg/inj ip, Day 1): 9.0 days | Survivors Day 5(45) (L-1210 Leukemia; 2 mg/kg/inj ip, Day 1): 6/6 | Average Weight Change,g (L-1210 Leukemia; 2.4 mg/kg/inj ip, qd 1→9): -3.8 g | Effect MST % T/C (L-1210 Leukemia; 2.4 mg/kg/inj ip, qd 1→9): 177 % T/C | MST Days (L-1210 Leukemia; 2.4 mg/kg/inj ip, qd 1→9): 11.5 days | Survivors Day 5(45) (L-1210 Leukemia; 2.4 mg/kg/inj ip, qd 1→9): 6/6 | Average Weight Change,g (L-1210 Leukemia; 4 mg/kg/inj ip, Day 1): -2.1 g | Effect MST % T/C (L-1210 Leukemia; 4 mg/kg/inj ip, Day 1): 123 % T/C | MST Days (L-1210 Leukemia; 4 mg/kg/inj ip, Day 1): 8.0 days | Survivors Day 5(45) (L-1210 Leukemia; 4 mg/kg/inj ip, Day 1): 6/6 | Average Weight Change,g (L-1210 Leukemia; 6 mg/kg/inj ip, Day 1): -3.7 g | Effect MST % T/C (L-1210 Leukemia; 6 mg/kg/inj ip, Day 1): 154 % T/C | MST Days (L-1210 Leukemia; 6 mg/kg/inj ip, Day 1): 10.0 days | Survivors Day 5(45) (L-1210 Leukemia; 6 mg/kg/inj ip, Day 1): 6/6 | Average Weight Change,g (L-1210 Leukemia; 8 mg/kg/inj ip, Day 1): -3.4 g | Effect MST % T/C (L-1210 Leukemia; 8 mg/kg/inj ip, Day 1): 185 % T/C | MST Days (L-1210 Leukemia; 8 mg/kg/inj ip, Day 1): 12.0 days | Survivors Day 5(45) (L-1210 Leukemia; 8 mg/kg/inj ip, Day 1): 6/6 | maximum T/C (L-1210 Leukemia; qd 1→9 (cis-DDP 2.4, parent 8 and 12, sodium salt 12 mg/kg/injection)): 177% | maximum T/C (L-1210 Leukemia; single ip injection at maximum tolerated dose (cis-DDP 8 mg/kg, the two others 36 mg/kg)): 185% | Av. Wt. Change,g Day 9 (Lewis Lung Carcinoma; 0.4 mg/kg/inj ip, qd 5→13): -0.4 g | Effect MST %TC (Lewis Lung Carcinoma; 0.4 mg/kg/inj ip, qd 5→13): 124 %TC | MST Days (Lewis Lung Carcinoma; 0.4 mg/kg/inj ip, qd 5→13): 15.5 days | Av. Wt. Change,g Day 9 (Lewis Lung Carcinoma; 0.8 mg/kg/inj ip, qd 5→13): -0.6 g | Effect MST %TC (Lewis Lung Carcinoma; 0.8 mg/kg/inj ip, qd 5→13): 136 %TC | MST Days (Lewis Lung Carcinoma; 0.8 mg/kg/inj ip, qd 5→13): 17.0 days | Av. Wt. Change,g Day 9 (Lewis Lung Carcinoma; 1.6 mg/kg/inj ip, qd 5→13): -1.8 g | Effect MST %TC (Lewis Lung Carcinoma; 1.6 mg/kg/inj ip, qd 5→13): 184 %TC | MST Days (Lewis Lung Carcinoma; 1.6 mg/kg/inj ip, qd 5→13): 23.0 days | Av. Wt. Change,g Day 9 (Lewis Lung Carcinoma; 2 mg/kg/inj ip, d. 5, 9&13): +0.8 g | Effect MST %TC (Lewis Lung Carcinoma; 2 mg/kg/inj ip, d. 5, 9&13): 152 %TC | MST Days (Lewis Lung Carcinoma; 2 mg/kg/inj ip, d. 5, 9&13): 19.0 days | Av. Wt. Change,g Day 9 (Lewis Lung Carcinoma; 2 mg/kg/inj iv, d. 5,9&13): +0.6 g | Effect MST %TC (Lewis Lung Carcinoma; 2 mg/kg/inj iv, d. 5,9&13): 104 %TC | MST Days (Lewis Lung Carcinoma; 2 mg/kg/inj iv, d. 5,9&13): 13.0 days | Av. Wt. Change,g Day 9 (Lewis Lung Carcinoma; 2.4 mg/kg/inj ip, qd 5→13): -2.4 g | Effect MST %TC (Lewis Lung Carcinoma; 2.4 mg/kg/inj ip, qd 5→13): 212 %TC | MST Days (Lewis Lung Carcinoma; 2.4 mg/kg/inj ip, qd 5→13): 26.5 days | Av. Wt. Change,g Day 9 (Lewis Lung Carcinoma; 4 mg/kg/inj ip, d. 5, 9&13): -0.3 g | Effect MST %TC (Lewis Lung Carcinoma; 4 mg/kg/inj ip, d. 5, 9&13): 168 %TC | MST Days (Lewis Lung Carcinoma; 4 mg/kg/inj ip, d. 5, 9&13): 21.0 days | Av. Wt. Change,g Day 9 (Lewis Lung Carcinoma; 4 mg/kg/inj iv, d. 5,9&13): -0.7 g | Effect MST %TC (Lewis Lung Carcinoma; 4 mg/kg/inj iv, d. 5,9&13): 120 %TC | MST Days (Lewis Lung Carcinoma; 4 mg/kg/inj iv, d. 5,9&13): 15.0 days | Av. Wt. Change,g Day 9 (Lewis Lung Carcinoma; 6 mg/kg/inj ip, d. 5, 9&13): -0.8 g | Effect MST %TC (Lewis Lung Carcinoma; 6 mg/kg/inj ip, d. 5, 9&13): 220 %TC | MST Days (Lewis Lung Carcinoma; 6 mg/kg/inj ip, d. 5, 9&13): 27.5 days | Av. Wt. Change,g Day 9 (Lewis Lung Carcinoma; 6 mg/kg/inj iv, d. 5,9&13): -1.1 g | Effect MST %TC (Lewis Lung Carcinoma; 6 mg/kg/inj iv, d. 5,9&13): 108 %TC | MST Days (Lewis Lung Carcinoma; 6 mg/kg/inj iv, d. 5,9&13): 13.5 days | Av. Wt. Change,g Day 9 (Lewis Lung Carcinoma; 8 mg/kg/inj ip, d. 5, 9&13): -2.7 g | Effect MST %TC (Lewis Lung Carcinoma; 8 mg/kg/inj ip, d. 5, 9&13): 128 %TC | MST Days (Lewis Lung Carcinoma; 8 mg/kg/inj ip, d. 5, 9&13): 16.0 days | Av. Wt. Change,g Day 9 (Lewis Lung Carcinoma; 8 mg/kg/inj iv, d. 5,9&13): -0.7 g | Effect MST %TC (Lewis Lung Carcinoma; 8 mg/kg/inj iv, d. 5,9&13): 112 %TC | MST Days (Lewis Lung Carcinoma; 8 mg/kg/inj iv, d. 5,9&13): 14.0 days | Survivors Day 9(48) (Lewis Lung Carcinoma; 0.4 mg/kg/inj ip, qd 5→13): 6/6 | Survivors Day 9(48) (Lewis Lung Carcinoma; 0.8 mg/kg/inj ip, qd 5→13): 5/6 | Survivors Day 9(48) (Lewis Lung Carcinoma; 1.6 mg/kg/inj ip, qd 5→13): 6/6 | Survivors Day 9(48) (Lewis Lung Carcinoma; 2 mg/kg/inj ip, d. 5, 9&13): 6/6 | Survivors Day 9(48) (Lewis Lung Carcinoma; 2 mg/kg/inj iv, d. 5,9&13): 6/6 | Survivors Day 9(48) (Lewis Lung Carcinoma; 2.4 mg/kg/inj ip, qd 5→13): 6/6 | Survivors Day 9(48) (Lewis Lung Carcinoma; 4 mg/kg/inj ip, d. 5, 9&13): 6/6 | Survivors Day 9(48) (Lewis Lung Carcinoma; 4 mg/kg/inj iv, d. 5,9&13): 6/6 | Survivors Day 9(48) (Lewis Lung Carcinoma; 6 mg/kg/inj ip, d. 5, 9&13): 6/6 | Survivors Day 9(48) (Lewis Lung Carcinoma; 6 mg/kg/inj iv, d. 5,9&13): 6/6 | Survivors Day 9(48) (Lewis Lung Carcinoma; 8 mg/kg/inj ip, d. 5, 9&13): 6/6 | Survivors Day 9(48) (Lewis Lung Carcinoma; 8 mg/kg/inj iv, d. 5,9&13): 6/6 | maximum T/C (Lewis Lung Carcinoma; given ip, therapy from day 5): 212-220% | T/C (Lewis Lung Carcinoma; given iv, therapy from day 5): inactive
